Measurements as given in US20060046981A1, “Anti-nonmelanoma carcinoma compounds, compositions, and methods of use thereof” (GILEAD SCIENCES, INC., priority 2003, published 2006).
Read-outs that look alike come from different tables or passages of the source.

What was measured:
[1] = system: SiHa cells; experiment: Antiproliferation assay (7 days, Sulforhodamine B) in SiHa cells; assay type: cell-based, human; settings: for Selectivity (HEL/SiHa): HEL EC50 divided by SiHa EC50; for Selectivity for SiHa cells compared with HEL cells: Example 80, also versus PHK keratinocytes, fold
Method: Antiproliferation assays measure effect of compounds on proliferation of cultured cells. Cells are cultured for 7 days in the presence of various concentrations of compounds. On the 7th day, cells are stained with dye, and intensity of staining (proportional to cell number) is measured by spectrophotometer.
(§1) Cells were detached from culture flasks using trypsin, counted, and plated in 96-well culture plates (250-1000 cells per well, depending on cell type). On the next day (defined as day 0), after cells attached to the bottom of plates, 5-fold serial dilutions of compounds were added in duplicate. No compound and 10 μM colchicine (cell division inhibitor) was added to control wells, which would represent 100% proliferation and 0% proliferation, respectively.
(§2) Seven days after addition of compounds, culture plates were treated with 10% trichloroacetic acid at 4° C. for 1 hr, then washed with water. This procedure allows cell-derived proteins to bind to the bottom surface of plates. Proteins were stained with 0.4% Sulforhodamine B in 1% acetic acid for 10 minutes, followed by extensive washing with 1% acetic acid. Remaining dye bound to the bottom of plates was dissolved in 10 mM Trizma base. This generated purple color that was quantified by measuring the absorbance at 510 nm wavelength, using spectrophotometer.
(§3) Cells were detached from culture flasks using trypsin, counted, and plated in 96-well culture plates ([…], depending on cell type). On the next day (defined as day 0), 5-fold serial dilutions of compounds were added in duplicate. Seven days after addition of compounds, culture plates were treated with 10% trichloroacetic acid at 4° C. for 1 hr and washed with water. This procedure allows cellular proteins to bind to the bottom surface of plates. Proteins were stained with 0.4% Sulforhodamine B in 1% acetic acid for 10 minutes, followed by extensive washing with 1% acetic acid. Remaining dye bound to the bottom of plates was solubilized in 10 mM Trizma base, generating purple color. Intensity of the color (proportional to cell number) was quantified by measuring the absorbance at 510 nm wavelength, using spectrophotometer. […] GraphPad Prism version 4.00 for Windows (GraphPad Software, San Diego Calif. USA) was used for the curve fitting and EC50 calculation.

[2] = system: HEL cells; experiment: Antiproliferation assay (7 days, Sulforhodamine B) in HEL fibroblasts; assay type: cell-based, human; settings: read-out: Antiproliferation EC50 HEL lung fibroblast
Method: as §1, §2, §3

[3] = system: CK cervical keratinocytes; experiment: cells; assay type: cell-based; settings: Homo sapiens, Keratinocyte; Table 79-3; read-out: Antiproliferation EC50 CK cervical keratinocytes
[4] = system: CaSki cells; experiment: Antiproliferation assay in CaSki cells; assay type: cell-based; settings: Homo sapiens, Ca-Ski; Table 79-4; read-out: Antiproliferation EC50 in HPV positive carcinoma cells CaSki HPV16
[5] = system: SCC-4 cells; experiment: Antiproliferation assay in SCC-4 cells; assay type: cell-based; settings: Homo sapiens, Table 79-4, read-out: Antiproliferation EC50 in HPV negative carcinoma cells SCC-4 tongue
[6] = system: HT-3 cells; experiment: Antiproliferation assay in HT-3 cells; assay type: cell-based; settings: Homo sapiens, Table 79-4, read-out: Antiproliferation EC50 in HPV negative carcinoma cells HT-3 cervix
[7] = system: SCC-9 cells; experiment: Antiproliferation assay in SCC-9 cells; assay type: cell-based; settings: Homo sapiens, Table 79-4, read-out: Antiproliferation EC50 in HPV negative carcinoma cells SCC-9 tongue
[8] = system: C-4 I cells; experiment: Antiproliferation assay in C-4 I cells; assay type: cell-based; settings: Homo sapiens, Table 79-4, read-out: Antiproliferation EC50 in HPV positive carcinoma cells C-41 HPV18
[9] = system: MS751 cells; experiment: Antiproliferation assay in MS751 cells; assay type: cell-based; settings: Homo sapiens, Table 79-4, read-out: Antiproliferation EC50 in HPV positive carcinoma cells MS-751 HPV18
[10] = system: PHK skin keratinocytes; experiment: cells; assay type: cell-based; settings: Homo sapiens, Keratinocyte; Table 79-3; read-out: Antiproliferation EC50 PHK skin keratinocytes
[11] = system: ME-180 cells; experiment: Antiproliferation assay in ME-180 cells; assay type: cell-based; settings: Homo sapiens, Table 79-4, read-out: Antiproliferation EC50 in HPV positive carcinoma cells ME-180 HPV39
[12] = system: HeLa cells; experiment: Antiproliferation assay in HeLa cells; assay type: cell-based; settings: Homo sapiens, Table 79-4, read-out: Antiproliferation EC50 in HPV positive carcinoma cells HeLa HPV18
[13] = system: HPV-16 SiHa cells; assay type: cell-based, human; settings: day 7, 0.2 μg/mL, Annexin V-Propidium iodide double staining
[14] = Table 79-2, 7 days, read-out: Antiproliferation EC50 SiHa cervical carcinoma (HPV16)
[15] = Homo sapiens, SiHa, 168 h, Table 79-2, 7 days, read-out: Antiproliferation EC50 SiHa cervical carcinoma (HPV16)
[16] = Homo sapiens, SiHa, Table 79-3, read-out: Antiproliferation EC50 SiHa cervical carcinoma (HPV16)
[17] = Homo sapiens, HEL, 168 h, Table 79-2, 7 days

C[C@@]1(CO)[C@H](O)CC[C@@]2(C)[C@H]1CC[C@H]1C[C@@H]3C[C@@]12CC[C@]3(O)CO [Aphidicolin (+), Aphidicolin]
Selectivity (HEL/SiHa) ([1]; Table 79-2): 0.40
EC50 [1, 14]: 0.856 µM
EC50 ([2]; Table 79-2, 7 days): 0.324 µM

Nc1ccn([C@@H]2O[C@H](CO)[C@@H](O)[C@@H]2O)c(=O)n1 [AraC, cytarabine]
EC50 [3]: 0.107 µM
EC50 [4]: 0.094 µM
EC50 [5]: 0.074 µM
EC50 [6]: 0.214 µM
Selectivity for SiHa cells compared with HEL cells [1]: did not show such selectivity
Selectivity (HEL/SiHa) ([1]; Table 79-2): 0.113
EC50 [1, 15]: 0.257 µM
EC50 [1, 16]: 0.257 µM
EC50 ([1]; Homo sapiens, SiHa, Table 79-4, read-out: Antiproliferation EC50 in HPV positive carcinoma cells SiHa HPV16): 0.257 µM
EC50 ([1]; Homo sapiens, six HPV positive cell lines: SiHa, CaSki, HeLa, MS751, C-4I, ME-180, read-out: Antiproliferation EC50 values, range over all cell lines): 0.094 to 0.257 µM
Selectivity (CK/SiHa) ([1]; Table 79-3): 0.4
Selectivity (PHK/SiHa) ([1]; Table 79-3): 0.57
EC50 [7]: 0.068 µM
EC50 [8]: 0.123 µM
EC50 [9]: 0.144 µM
EC50 [10]: 0.147 µM
EC50 [2, 17]: 0.029 µM
EC50 [11]: 0.101 µM
EC50 [12]: 0.174 µM

Nc1ccn(C[C@@H](CO)OCP(=O)(O)O)c(=O)n1 [Cidofovir]
Selectivity (HEL/SiHa) ([1]; Table 79-2): 0.3
EC50 [1, 15]: 84 µM
EC50 [2, 17]: 28 µM

CN(C)/N=N/c1[nH]cnc1C(N)=O [Dacarba-zine, Dacarbazine]
Selectivity (HEL/SiHa) ([1]; Table 79-2): 3.98
EC50 [1, 15]: 7.4 µM
EC50 [2, 17]: 29.5 µM

C[C@H]1O[C@@H](n2cc(F)c(=O)[nH]c2=O)[C@H](O)[C@@H]1O [Doxifluridine]
Selectivity (HEL/SiHa) ([1]; Table 79-2): 0.449
EC50 [1, 15]: 8.76 µM
EC50 [2, 17]: 3.93 µM

COc1cccc2c1C(=O)c1c(O)c3c(c(O)c1C2=O)C[C@@](O)(C(=O)CO)C[C@@H]3O[C@H]1C[C@H](N)[C@H](O)[C@H](C)O1 [Doxorubicin]
Selectivity (HEL/SiHa) ([1]; Table 79-2): 0.43
EC50 [1, 15]: 0.00976 µM
EC50 [2, 17]: 0.0042 µM

Cc1c2ccncc2c(C)c2c1[nH]c1ccccc12 [Ellipticine]
Selectivity (HEL/SiHa) ([1]; Table 79-2): 1.02
EC50 [1, 15]: 0.478 µM
EC50 [2, 17]: 0.486 µM

COc1cc([C@@H]2c3cc4c(cc3[C@@H](O[C@@H]3O[C@@H]5CO[C@@H](C)O[C@H]5[C@H](O)[C@H]3O)[C@H]3COC(=O)[C@H]23)OCO4)cc(OC)c1O [Etoposide]
Selectivity (HEL/SiHa) ([1]; Table 79-2): 0.31
EC50 [1, 15]: 0.469 µM
EC50 [2, 17]: 0.144 µM

COc1cc2c(c(N)c1OC)C(=O)/C(=C\c1cc(C)c(O)c(C)c1)C2 [Indanosine, Indanocine]
EC50 ([1]; Homo sapiens, SiHa, 168 h, read-out: Antiproliferation EC50 SiHa cervical carcinoma (HPV16)): 0.588 µM
EC50 ([2]; Homo sapiens, HEL, 168 h): 0.159 µM

O=C1c2c(O)ccc(O)c2C(=O)c2c(NCCNCCO)ccc(NCCNCCO)c21 [Mitoxantrone]
Selectivity (HEL/SiHa) ([1]; Table 79-2): <0.37
EC50 [1, 15]: 0.00867 µM
EC50 [2, 17]: < 0.0032 µM

Nc1nc2c(ncn2CCOCP(=O)(O)O)c(=O)[nH]1 [PMEG, 9-(2-phosphonylmethoxyethyl)guanine]
EC50 [3]: 0.501 µM
% of apoptotic cells in the culture [13]: 1.2%
Selectivity for SiHa cells compared with HEL cells [1]: did not show such selectivity
Selectivity (HEL/SiHa) ([1]; Table 79-2): 4.1
EC50 [1, 15]: 0.207 µM
EC50 [1, 16]: 0.207 µM
Selectivity (CK/SiHa) ([1]; Table 79-3): 2.4
Selectivity (PHK/SiHa) ([1]; Table 79-3): 0.48
EC50 [10]: 0.101 µM
EC50 [2, 17]: 0.861 µM

COc1cc([C@@H]2c3cc4c(cc3[C@H](O)[C@H]3COC(=O)[C@H]23)OCO4)cc(OC)c1OC [Podofilox]
Selectivity for SiHa cells compared with HEL cells [1]: showed no selectivity

CC[C@]1(O)C[C@@H]2CN(CCc3c([nH]c4ccccc34)[C@@](C(=O)OC)(c3cc4c(cc3OC)N(C)[C@H]3[C@@](O)(C(=O)OC)[C@H](OC(C)=O)[C@]5(CC)C=CCN6CC[C@]43[C@@H]65)C2)C1 [Vinblastine]
Selectivity (HEL/SiHa) ([1]; Table 79-2): 0.39
EC50 [1, 15]: 0.00068 µM
EC50 [2, 17]: 0.00027 µM

CC[C@]1(O)C[C@H]2CN(CCc3c([nH]c4ccccc34)[C@@](C(=O)OC)(c3cc4c(cc3OC)N(C=O)[C@H]3[C@@](O)(C(=O)OC)[C@H](OC(C)=O)[C@]5(CC)C=CCN6CC[C@]43[C@@H]65)C2)C1 [Vincristine]
Selectivity (HEL/SiHa) ([1]; Table 79-2): 1.55
EC50 [1, 15]: 0.00124 µM
EC50 [2, 17]: 0.00192 µM

Nc1ccn([C@@H]2O[C@H](CO)[C@@H](O)C2(F)F)c(=O)n1 [gemcitabine]
Selectivity for SiHa cells compared with HEL cells [1]: did not show such selectivity

Bleomycin
Selectivity (HEL/SiHa) ([1]; Table 79-2): 0.01
EC50 [1, 14]: 3.14 µM
EC50 ([2]; Table 79-2, 7 days): 0.0203 µM
